Data from PubChem BioAssay (NCI).
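A five-concentration, 48-hour dose response in 96-well plates underlies each endpoint, interpolated linearly between surrounding concentrations. GI50 = concentration required for 50% inhibition of growth. At the TGI there is no net growth.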

Key:
Experiment in all cases: inhibition of tumour cell growth, NCI panel, 48 h
SN12C renal = test system: SN12C renal
A498 renal = test system: A498 renal
LOX IMVI melanoma = test system: LOX IMVI melanoma
UACC-257 melanoma = test system: UACC-257 melanoma
EKVX NSCLC = test system: EKVX NSCLC
MOLT-4 leukemia = test system: MOLT-4 leukemia
UO-31 renal = test system: UO-31 renal
SK-MEL-28 melanoma = test system: SK-MEL-28 melanoma
DU-145 prostate = test system: DU-145 prostate
OVCAR-4 ovarian = test system: OVCAR-4 ovarian
K-562 leukemia = test system: K-562 leukemia

Structure (SMILES): CC(=O)Oc1ccc2c3c1O[C@H]1[C@H](O)CC[C@@]4(O)[C@@H](C2)N(C)CC[C@]314
- TGI (SN12C renal): > 100 µM
- TGI (A498 renal): > 100 µM
- TGI (LOX IMVI melanoma): > 100 µM
- TGI (UACC-257 melanoma): > 100 µM
- TGI (EKVX NSCLC): > 100 µM
- TGI (MOLT-4 leukemia): > 100 µM
- TGI (UO-31 renal): > 100 µM
- TGI (SK-MEL-28 melanoma): > 100 µM
- TGI (DU-145 prostate): > 100 µM
- TGI (OVCAR-4 ovarian): > 100 µM

Structure (SMILES): O=C1CC(=O)NC(=NNS(=O)(=O)c2ccc(Cl)cc2)N1
- TGI (K-562 leukemia): > 100 µM
- TGI (SN12C renal): > 100 µM
- TGI (A498 renal): > 100 µM
- TGI (UACC-257 melanoma): > 100 µM
- TGI (MOLT-4 leukemia): > 100 µM
- TGI (UO-31 renal): > 100 µM
- TGI (SK-MEL-28 melanoma): > 100 µM
- TGI (DU-145 prostate): > 100 µM
- TGI (OVCAR-4 ovarian): > 100 µM

Structure (SMILES): Cc1[nH]c(=O)nc(NNCc2ccc(Cl)cc2)c1C(=O)Nc1ccc(Cl)cc1
- TGI (SN12C renal): > 100 µM
- TGI (A498 renal): > 100 µM
- TGI (LOX IMVI melanoma): > 100 µM
- TGI (UACC-257 melanoma): > 100 µM
- TGI (MOLT-4 leukemia): > 100 µM
- TGI (UO-31 renal): > 100 µM
- TGI (SK-MEL-28 melanoma): > 100 µM
- TGI (DU-145 prostate): > 100 µM
- TGI (OVCAR-4 ovarian): > 100 µM

Structure (SMILES): CCOC1CC(C)N(C(=O)c2ccccc2)O1 (stereo not drawn)
- TGI (K-562 leukemia): > 100 µM
- TGI (SN12C renal): > 100 µM
- TGI (A498 renal): > 100 µM
- TGI (EKVX NSCLC): > 100 µM
- TGI (MOLT-4 leukemia): > 100 µM
- TGI (UO-31 renal): > 100 µM
- TGI (SK-MEL-28 melanoma): > 100 µM
- TGI (DU-145 prostate): > 100 µM

Structure (SMILES): Cc1cnc2[nH]c(-c3ccc4ccccc4c3)cc(=O)c2c1
- TGI (SN12C renal): > 100 µM
- TGI (LOX IMVI melanoma): > 100 µM
- TGI (MOLT-4 leukemia): > 100 µM
- TGI (UO-31 renal): > 100 µM
- TGI (SK-MEL-28 melanoma): > 100 µM
- TGI (DU-145 prostate): 27.9 µM
- TGI (OVCAR-4 ovarian): > 100 µM

Structure (SMILES): CCOC(=O)c1cccc(NC(=O)CI)c1
- TGI (SN12C renal): 0.731 µM
- TGI (A498 renal): 4.72 µM
- TGI (UACC-257 melanoma): 2.95 µM
- TGI (EKVX NSCLC): 3.94 µM
- TGI (MOLT-4 leukemia): 0.221 µM
- TGI (UO-31 renal): 0.43 µM
- TGI (SK-MEL-28 melanoma): 5.86 µM
- TGI (DU-145 prostate): 3.34 µM
- TGI (OVCAR-4 ovarian): 3.02 µM

Structure (SMILES): C#CC1(O)CCCCCCCCC2(CCCCCCCC1)OCCO2
- TGI (K-562 leukemia): 43.6 µM
- TGI (SN12C renal): 31.5 µM
- TGI (A498 renal): 27.8 µM
- TGI (LOX IMVI melanoma): 38.1 µM
- TGI (UACC-257 melanoma): 39.2 µM
- TGI (EKVX NSCLC): 32.6 µM
- TGI (SK-MEL-28 melanoma): 35.1 µM
- TGI (DU-145 prostate): 31.1 µM
- TGI (OVCAR-4 ovarian): 19.5 µM

Structure (SMILES): O=C(N/N=C/c1cc(Br)cc(Br)c1[O-])c1ccccc1O.O=C(N/N=C/c1cc(Br)cc(Br)c1[O-])c1ccccc1O.[Co+2]
- GI50 (K-562 leukemia): 643 nM
- TGI (K-562 leukemia): 16.2 µM
- TGI (LOX IMVI melanoma): 12.9 µM
- TGI (UACC-257 melanoma): 17.6 µM
- TGI (EKVX NSCLC): 11.3 µM
- TGI (MOLT-4 leukemia): 14.3 µM
- TGI (UO-31 renal): 10.6 µM
- TGI (SK-MEL-28 melanoma): 14.5 µM
- TGI (OVCAR-4 ovarian): 3.15 µM

Structure (SMILES): ClCCCCCc1c2nc(c(CCCCCCl)c3ccc([nH]3)c(CCCCCCl)c3ccc([nH]3)c(CCCCCCl)c3nc1C=C3)C=C2
- TGI (K-562 leukemia): > 100 µM
- TGI (SN12C renal): > 100 µM
- TGI (A498 renal): > 100 µM
- TGI (LOX IMVI melanoma): > 100 µM
- TGI (UACC-257 melanoma): > 100 µM
- TGI (EKVX NSCLC): > 100 µM
- TGI (MOLT-4 leukemia): > 100 µM
- TGI (UO-31 renal): > 100 µM
- TGI (SK-MEL-28 melanoma): > 100 µM
- TGI (OVCAR-4 ovarian): > 100 µM

Structure (SMILES): Nc1nc(-c2ccco2)cc(-c2ccc(CO)o2)n1
- TGI (K-562 leukemia): > 100 µM
- TGI (SN12C renal): > 100 µM
- TGI (LOX IMVI melanoma): > 100 µM
- TGI (EKVX NSCLC): > 100 µM
- TGI (MOLT-4 leukemia): > 100 µM
- TGI (UO-31 renal): > 100 µM
- TGI (SK-MEL-28 melanoma): > 100 µM
- TGI (OVCAR-4 ovarian): > 100 µM

Structure (SMILES): COc1cccc(C2c3cc4c(cc3OC(Nc3ccccc3)C2C)OCO4)c1OC (stereo not drawn)
- TGI (K-562 leukemia): > 100 µM
- TGI (SN12C renal): > 100 µM
- TGI (A498 renal): > 100 µM
- TGI (LOX IMVI melanoma): > 100 µM
- TGI (UACC-257 melanoma): 97.3 µM
- TGI (EKVX NSCLC): > 100 µM
- TGI (MOLT-4 leukemia): 17.9 µM
- TGI (UO-31 renal): > 100 µM
- TGI (SK-MEL-28 melanoma): > 100 µM
- TGI (DU-145 prostate): > 100 µM
